Results published in EPA's ToxValDB 9.5 (doi:10.2903/j.efsa.2014.3801).
“And” between values parts separate entries of the source, which are not always exact repeats. Equal values may be shown once.

Assays:
[1] = system: Anas platyrhynchos; settings: reproductive
[2] = system: Apis mellifera; settings: acute, mortality
[3] = system: Colinus virginianus; settings: acute, oral
[4] = system: Folsomia candida; settings: chronic/long-term
[5] = system: Oncorhynchus mykiss; settings: for LC50: acute, duration: 96 hours, mortality; for NOEC: chronic/long-term
[6] = system: Rattus norvegicus; settings: for LD50: acute; for NOAEL: reproduction developmental
[7] = system: Tagia sp.; settings: for LC50: acute, mortality
[8] = system: Typhlodromus pyri; assay: LR50; higher = less toxic; settings: acute; duration: 14 days; mortality
[9] = system: Daphnia magna; settings: chronic/long-term; duration: 21 days

Structure (SMILES)	NOAEL [1]	LD50 ([2]; dermal)	LD50 ([2]; oral, unspecified)	LD50 [3]	LC50 ([3]; diet)	NOEC [4]	LC50 [5]	LD50 ([6]; oral, mortality)	NOAEL [6]	NOAEL ([6]; body weight)	NOAEL ([6]; organ weight)	LC50 [7]	LR50 [8]	NOEC [9]	NOEC ([5]; duration: 21 days)	NOEC ([5]; duration: 69 days, other)	LD50 ([6]; F)	NOEC ([7]; chronic/long-term)
CCCCCCCCSC(=O)Oc1cc(Cl)nnc1-c1ccccc1 [Pyridate]	100 mg/kg	> 100 µg/piece	> 110 µg/piece	1270 mg/kg	> 1250 mg/kg	112 mg/kg	> 1.01 µg/mL and 1.19 µg/mL	> 2000 mg/kg	18.8 mg/kg-day	165 mg/kg-day	3.6 mg/kg-day	400 mg/kg	> 1360 g/ha	–	–	–	–	–
O=c1cc(Cl)[nH]nc1-c1ccccc1 [Pyridafol]	–	–	–	–	–	–	> 16.2 µg/mL	–	–	–	–	348 mg/kg	–	5 mg/L	> 17 mg/L	0.1 mg/L	1420 mg/kg	3.25 mg/kg
